Test results: PMC12384620, “Hit-to-Lead Studies of Pyrazinylpiperazines against Visceral Leishmaniasis: Pharmacokinetic Profile and In Vivo Efficacy of Potent Compounds against Leishmania infantum” (ACS Pharmacology & Translational Science, 2025)

Key:
THP-1 cells = system: THP-1 cells; parameters: method as in SAR previously reported; conditions: ref SAR previously reported; cited from earlier work
[1] = Experimental lipophilicity elog(D) at pH 7.4 by retention time; type: physicochemical; conditions: pH 7.4, chromatographic
Experimental: The analysis was performed using LC-MS/MS (liquid chromatography-tandem mass spectrometry). The chromatography system used was a Prominence UFLC (Shimadzu Corporation, Kyoto, Japan), interfaced with a LCMS-8045 triple quadrupole mass spectrometer (Shimadzu Corporation, Kyoto, Japan) equipped with an electrospray ionization source (ESI).
For the determination of the distribution coefficient (elog(D)), a methodology based on the retention time of molecules in the stationary phase was used. The chromatogram was achieved on a Supelco Ascentis express RP amide HPLC column (5 cm x 2.1 mm, […]), using 5% methanol in 10 mM ammonium acetate pH 7.4 (A) and 100% methanol (B) as mobile phases. The mobile phase was eluted in binary gradient mode, as follows: 0 min: 95% A; 0.3 min: 100% A; 5.2 min: 0% A; 5.6 min: 0% A; 5.8 min: 100% A; 7.0 min: 100% A. The total run time was 7 min, and 5 μL of each sample were injected. The solutions of tested compounds were prepared at a concentration of 1.0 mg/mL in compound by adding the stock solution to a (1:1) mix of mobile phases A:B (internal standard at 200 nM), and the DMSO concentration was lower than 2%. […]

[2] = system: L. infantum::tdTomato intracellular amastigotes; assay: Synergism between 2 and Sb^III against intracellular L. infantum amastigotes; type: cell-based, Leishmania infantum
Experimental: Cells derived from the human monocytic strain THP-1 were cultured in complete Rowell Park Memorial Institute (RPMI)-1640 medium (supplemented with 10% fetal bovine serum, 100 U/mL penicillin, and 100 μg/mL streptomycin). Monocytes were differentiated into macrophages by the addition of 20 ng/mL phorbol myristate acetate (PMA). After 72 h, the macrophages (5 × 10^4), in black 96-well microtiter plates (Corning Incorporated, Corning, NY), were infected with Leishmania (Leishmania) infantum (MHOM/BR/1974/PP75) promastigotes expressing red fluorescence protein on the second day of the stationary phase (20 parasites per macrophage) for 4 h. […] To investigate the possibility of synergism between Sb^III and compound 2, […] different concentrations of these drugs were used (1.0, 0.5, 0.2, 0.1, and 0.05 μg/mL), the solutions of Sb^III and 2 being prepared and diluted the day of the assay. The compounds were tested separately and in combination. […] The EC50 values were determined by nonlinear regression using a Variable slope model (log(concentration) vs growth inhibition) with the GraphPadPrism v8.2.0 (CA, USA) software. By normalizing the data as a fractional response, it was possible to perform the calculation using a Bayesian model. The results were compared to each other to determine whether the combination of compounds has a synergistic, antagonistic or additive effect. Controls with uninfected cells, untreated infected cells, infected cells treated with amphotericin B at 0.25 μM (positive control) or DMSO 1% were used. Quadruplicates were run on the same plate, and the experiments were repeated at least once.

BALB/c mice = assay: Acute toxicity / maximum tolerated dose in uninfected mice; type: in vivo, mouse; conditions: intraperitoneal, accumulated dose 100 mg/kg, 24 h after last dose
Experimental: The maximum tolerated dose (MTD) of 2 was determined in BALB/c mice. One male and one female specimen, uninfected, 6 weeks old (ideal weight: 20 g), were each administered intraperitoneally an emulsified sample prepared with 70% PBS1X, 20% PEG 400 (Polyethylene glycol 400, Sigma-Aldrich), 0.16% Tween 80 and 10% of 2, with an initial dose of 5 mg/kg of 2. After 2 h, an additional dose of 15 mg/kg was administered (resulting in an accumulated dose (AD) of 20 mg/kg). After another 2 h, a new dose of 30 mg/kg was administered (AD = 50 mg/kg). After a further 2 h, a final dose of 50 mg/kg (AD = 100 mg/kg) was administered.

[3] = system: L. infantum promastigotes; assay: Reactive oxygen species production assay (H2DCFDA); type: cell-based, Leishmania infantum; conditions: at IC50 against promastigotes, 24 h; standard 100 μM H2O2
Experimental: The fluorescent dye H2DCFDA was employed to evaluate ROS production. […] After treatment, the parasites were harvested, washed three times with 1 × PBS, and incubated with 10 μM H2DCFDA dye in […] of 1 × PBS in the dark at room temperature for 30 min. Subsequently, the cells were centrifugated, resuspended in ice-cold PBS and kept at 0 °C until reading on a SpectraMax Gemini XPS/EM microplate reader. The median fluorescence intensity (MIF) was measured on a population of at least ten thousand cells and the data was further analyzed using Excel 2021.

SMILES	CC50 (THP-1 cells)	elog(D) [1]	IC50 ([2]; Leishmania infantum, 72 h, read-out: IC50 against intracellular amastigotes of L. infantum)	effect of the combination of 2 and Sb^III (Bayesian model) ([2]; combination of 2 with Sb^III, in vitro against L. infantum)	signs of acute toxicity (MTD determination) (BALB/c mice)	ROS production [3]
O=C(c1ccc(O)c(Cl)c1)N1CCN(c2cnccn2)CC1 [Compound 1, (3-Chloro-4-hydroxyphenyl)(4-(pyrazin-2-yl)piperazin-1-yl)methanone]	542 µM					
O=C(c1ccc(O)cc1)N1CCN(c2cnccn2)CC1 [Compound 2, (4-Hydroxyphenyl)(4-(pyrazin-2-yl)piperazin-1-yl)methanone]		1.64	3.1 ± 1.3 µM	antagonistic	no apparent signs of acute toxicity	comparable to that of the standard H2O2
